Experimental data as given in US9976146B2, “Aptamer targeting MAGE-A3 peptide and uses thereof” (Academia Sinica, priority 2014, dated 2018).
pKd: −log10 of the molar value.

Experiments:
MAGE-A3111-125 peptide [1] = target: T1, MAGE-A3111-125 peptide (Homo sapiens, UniProt P43357); test: Peptide-magnetic bead binding assay with elution and PCR amplification (FIG. 1); settings: peptide on streptavidin-coupled magnetic beads
From the text: FIG. 1 is a photograph illustrating the PCR results of the binding affinity and specificity between Ap52 of Example 2 and specified peptides, in which peptide MAGE-A3111-125 (+), NY-ESO-1119-143 (N1), NY-ESO-1157-170 (N2), NY-ESO-187-111 (N3), or no peptide (−) were reacted with Ap52, followed by elution and PCR amplification; PB served as a control of oligonucleotide aptamer;
A total of ninety-four different sequences were obtained and further assayed individually for its binding affinity and specificity to MAGE-A3111-125. Plasmid DNA was first amplified by use of anchored PCR, as described above. The resulting ssDNA products were purified through 12% denaturing PAGE and incubated with the biotinylated peptide MAGE-A3111-125, which was pre-incubated with the streptavidin-coupled magnetic beads and thus formed a peptide-magnetic bead complex through the streptavidin-biotin interaction. The sequences that bound specifically to the peptide MAGE-A3111-125 were isolated by the magnet and subject to further purification, as the procedure described in library selection.
Thus, Ap52 is highly specific in terms of binding with MAGE-A3111-125 peptide.

MAGE-A3111-125 peptide [2] = target: T1, MAGE-A3111-125 peptide; test: Isothermal titration calorimetry (ITC) for dissociation constant (Kd) determination; assay type: binding
Protocol: Isothermal Titration Calorimetry (ITC) for Dissociation Constant (Kd) Determination
Thermodynamic profile of the interaction between DNA and peptide was measured with a MicroCal iTC200 (GE Healthcare Life Sciences) at 25° C. in washing buffer (0.45% glucose, 5 mM MgCl2, in Dulbecco's Phosphate-Buffered Saline). The unmodified MAGE-A3111-125 peptide (0.3 mM, 200 μl) was titrated with 18 successive injections of 2 μl aptamer (0.1 mM) at 150 s intervals. The data were analyzed using MicroCal Origin 7 and fit with a one-set-of sites binding model to obtain values of enthalpy change (AH) and association constant (Ka).
Isothermal titration calorimetry (ITC) is a technique used to measure the thermodynamic profile of the interactions between two molecules, and thus can be used to determine the respective binding affinities of Ap16 and Ap52 to MAGE-A3111-125 peptide. […] Therefore, both Ap52 and Ap16 are effective in targeting MAGE-A3111-125-peptide.

[3] = ITC at 25° C. in washing buffer, one-set-of sites binding model

Ap16-control: 16-nucleotide region (SEQ ID NO: 7) from another oligonucleotide selected from SELEX, used as a negative control (ATCATTCGGATGTGTG; listed as DNA, chemistry not fully specified)
binding to MAGE-A3111-125 peptide (MAGE-A3111-125 peptide [1]): failed to bind

Ap16: oligonucleotide aptamer of 16 nucleotides AGCACTCAATATTCCC (SEQ ID NO: 1), central randomized region of Ap52 (listed as DNA, chemistry not given here)
pKd (MAGE-A3111-125 peptide [2]; [3]): 7.02 | ΔH (enthalpy change) (MAGE-A3111-125 peptide [2]; [3]): -41 kcal/mol | Kd values, in words (MAGE-A3111-125 peptide [2]; general statement on binding to the MAGE-A3 peptide): nanomolar range
